Experimental data from patent US20080287653A1, “METHOD FOR PRODUCING INHIBITORS AND INHIBITORS FORMED THEREFROM” (THE UNIVERSITY OF AKRON, priority 2007, published 2008).
Non-standard residues stand in square brackets, D forms with d. Residues, ends and D or L forms follow the SMILES beside them. Lys(Thioacetyl) = CC(=S)NCCCC[C@H](N)C(=O)O

What was measured:
SIRT1, SIRT2, and SIRT3 = test: Dethioacetylation of inhibitor peptides under the sirtuin inhibition assay conditions; type: biochemical, human; conditions: same assay conditions as SIRT1/SIRT2/SIRT3 inhibition assays
Method: Inhibition assays with purified SIRT1, SIRT2, and SIRT3. GST-SIRT1 that could be produced in a laboratory was used for the SIRT1 inhibition assay. SIRT2 and SIRT3 are obtainable from commercial sources known to those skilled in the art. Consistent HPLC-based assay procedures were used for the inhibition assays with SIRT1, SIRT2, and SIRT3. In brief, an inhibition assay solution had the following components: 25 mM (or 50 mM for SIRT2 assay) Tris.HCl (pH 8.0) 137 mM NaCl, 2.7 mM KCl, 1 mM MgCl2, 1 mg/mL BSA (SIGMA Cat. #A3803 with reduced fatty acid content, for SIRT2 assay only), 0.5 mM β-NAD^+, 0.3 mM peptide substrate (peptide 1b for SIRT1 and SIRT2 assays; peptide 3b for SIRT3 assay), an inhibitor (peptide 1a, 2, or 3a) with varied concentrations including 0, and an enzyme (GST-SIRT1, 0.15 μM; SIRT2, 0.3 μM; or SIRT3, 2.0 μM). […] An enzymatic reaction was initiated by the addition of an enzyme at 37° C. and was allowed to be incubated at 37° C.: 10 minutes as follows: for SIRT1 assay, or 60 minutes for SIRT2 and SIRT3 assays. Incubation was quenched at the indicated time with the following stop solution: 100 mM HCl and 0.16 M acetic acid. The conversion of the limiting substrate to the product was maintained at ≦12%. The quenched assay solutions were directly injected into a reversed-phase HPLC C18 column (100 Å, 0.46×25 cm), eluting with the following gradients of ddH2O containing 0.05% (v/v) trifluoroacetic acid (mobile phase A) and acetonitrile containing 0.05% (v/v) trifluoroacetic acid (mobile phase B): linear increase from 0% B to 35% B (for SIRT1 assay) or 40% B (for SIRT2 and SIRT3 assays) from 0-40 minutes (1 mL/min), and UV monitoring at 214 nm. The enzymatic deacetylation products (peptide 1c in SIRT1 and SIRT2 assays; peptide 3c in SIRT3 assay) were confirmed by their comigration with the chemically synthesized authentic samples and by MALDI-TOF mass spectrometric analysis, and were quantified by HPLC peak integration and comparison with those of synthetic authentic samples. […] All peptide stock solutions were prepared in ddH2O. […]

SIRT1 = molecular target: T1, SIRT1 (Homo sapiens, UniProt Q96EB6); test: HPLC-based SIRT1 inhibition assay with purified GST-SIRT1; type: biochemical
T1 construct: made in house
T1 sequence (Q96EB6 1-747): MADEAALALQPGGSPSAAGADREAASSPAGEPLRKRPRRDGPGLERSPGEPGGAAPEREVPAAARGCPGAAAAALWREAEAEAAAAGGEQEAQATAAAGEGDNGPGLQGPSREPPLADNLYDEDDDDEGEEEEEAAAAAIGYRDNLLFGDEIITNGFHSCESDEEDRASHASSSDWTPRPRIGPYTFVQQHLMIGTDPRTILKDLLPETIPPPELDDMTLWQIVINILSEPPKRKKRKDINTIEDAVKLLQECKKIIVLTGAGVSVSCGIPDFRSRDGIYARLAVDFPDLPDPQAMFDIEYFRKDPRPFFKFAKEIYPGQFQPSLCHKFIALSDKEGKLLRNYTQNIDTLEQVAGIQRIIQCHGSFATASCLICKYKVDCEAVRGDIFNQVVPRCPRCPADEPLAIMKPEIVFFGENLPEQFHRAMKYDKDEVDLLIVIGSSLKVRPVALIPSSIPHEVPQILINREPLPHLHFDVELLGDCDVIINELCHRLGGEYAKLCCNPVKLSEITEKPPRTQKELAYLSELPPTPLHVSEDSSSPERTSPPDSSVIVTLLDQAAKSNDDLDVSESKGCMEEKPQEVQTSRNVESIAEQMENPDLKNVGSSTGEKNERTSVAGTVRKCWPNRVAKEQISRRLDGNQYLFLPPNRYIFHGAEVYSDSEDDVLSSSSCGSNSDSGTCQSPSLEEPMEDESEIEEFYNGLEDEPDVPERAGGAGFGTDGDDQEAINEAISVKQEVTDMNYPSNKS
Method: Inhibition assays with purified SIRT1, SIRT2, and SIRT3. GST-SIRT1 that could be produced in a laboratory was used for the SIRT1 inhibition assay. SIRT2 and SIRT3 are obtainable from commercial sources known to those skilled in the art. Consistent HPLC-based assay procedures were used for the inhibition assays with SIRT1, SIRT2, and SIRT3. […] An enzymatic reaction was initiated by the addition of an enzyme at 37° C. and was allowed to be incubated at 37° C.: 10 minutes as follows: for SIRT1 assay, or 60 minutes for SIRT2 and SIRT3 assays. Incubation was quenched at the indicated time with the following stop solution: 100 mM HCl and 0.16 M acetic acid. […] All peptide stock solutions were prepared in ddH2O. IC50 values were estimated from Dixon plots (1/v0 vs. [inhibitor]) as an indication of the inhibition potency.

inhibition weaker for SIRT1 as compared to SIRT2 (SIRT1; SIRT1 vs SIRT2)	stronger inhibition with respect to SIRT1 than SIRT2 and SIRT3 (SIRT1; SIRT1 vs SIRT2 and SIRT3)	SMILES	formation of dethioacetylated peptide under sirtuin inhibition assay conditions (SIRT1, SIRT2, and SIRT3)
about 10 fold	–	CC[C@H](C)[C@H](NC(=O)[C@@H](NC(=O)[C@H](CCCCNC(C)=S)NC(=O)[C@H](CC(=O)O)NC(=O)[C@H](CO)NC(=O)[C@@H]1CCCN1C(=O)[C@@H](N)CCSC)[C@@H](C)O)C(=O)NCC(=O)NCC(=O)O [Peptide 2] (H-MPSD[Lys(Thioacetyl)]TIGG-OH)	detectable formation
–	about 5 fold	CC[C@H](C)[C@H](NC(=O)[C@@H](NC(=O)[C@H](CCCCN)NC(=O)[C@H](CCCNC(=N)N)NC(=O)[C@H](CC(C)C)NC(=O)[C@H](CC(C)C)NC(=O)[C@H](CCCNC(=N)N)NC(=O)[C@H](CCCNC(=N)N)NC(=O)[C@H](CCSC)NC(=O)[C@@H](NC(=O)[C@H](CCCCNC(C)=S)NC(=O)CNC(=O)[C@H](CO)NC(=O)[C@H](CCCNC(=N)N)NC(=O)[C@@H](NC(=O)[C@H](CCCCN)NC(=O)[C@@H]1CCCN1C(=O)[C@H](CC(C)C)NC(=O)[C@H](CCCNC(=N)N)NC(=O)[C@@H](N)CCCCN)[C@@H](C)O)C(C)C)[C@@H](C)CC)C(=O)O [Peptide 3a] (H-KRLPKTRSG[Lys(Thioacetyl)]VMRRLLRKII-OH)	did not give rise to detectable formation
